From ChEMBL document CHEMBL4017477, “Synthesis and evaluation of 4,6-disubstituted pyrimidines as CNS penetrant pan-muscarinic antagonists with a novel chemotype” (Bioorg Med Chem Lett, 2017)

Assays:
[1] = target: T1, Muscarinic acetylcholine receptor M4 (Homo sapiens, UniProt P08173); assay: Antagonist activity at recombinant human M4 receptor expressed in CHO cells co-expressing Gqi5 by calcium mobilization assay; assay type: functional, cell-based
T1 sequence (P08173 whole entry): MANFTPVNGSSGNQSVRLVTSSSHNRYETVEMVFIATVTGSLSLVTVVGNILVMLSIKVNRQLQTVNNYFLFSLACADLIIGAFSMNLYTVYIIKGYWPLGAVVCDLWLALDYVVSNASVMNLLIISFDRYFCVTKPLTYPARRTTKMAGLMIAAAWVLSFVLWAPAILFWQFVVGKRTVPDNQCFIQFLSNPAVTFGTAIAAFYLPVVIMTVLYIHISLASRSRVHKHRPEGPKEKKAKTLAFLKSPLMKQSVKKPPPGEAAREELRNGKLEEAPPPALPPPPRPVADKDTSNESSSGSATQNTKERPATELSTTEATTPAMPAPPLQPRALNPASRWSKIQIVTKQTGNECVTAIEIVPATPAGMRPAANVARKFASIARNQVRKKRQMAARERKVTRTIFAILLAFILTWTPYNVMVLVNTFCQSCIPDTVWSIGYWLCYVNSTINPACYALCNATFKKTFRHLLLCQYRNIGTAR

[2] = target: T2, Muscarinic acetylcholine receptor M2 (Homo sapiens, UniProt P08172); assay: Antagonist activity at recombinant human M2 receptor expressed in CHO cells co-expressing Gqi5 by calcium mobilization assay; assay type: functional, cell-based
T2 sequence (P08172 whole entry): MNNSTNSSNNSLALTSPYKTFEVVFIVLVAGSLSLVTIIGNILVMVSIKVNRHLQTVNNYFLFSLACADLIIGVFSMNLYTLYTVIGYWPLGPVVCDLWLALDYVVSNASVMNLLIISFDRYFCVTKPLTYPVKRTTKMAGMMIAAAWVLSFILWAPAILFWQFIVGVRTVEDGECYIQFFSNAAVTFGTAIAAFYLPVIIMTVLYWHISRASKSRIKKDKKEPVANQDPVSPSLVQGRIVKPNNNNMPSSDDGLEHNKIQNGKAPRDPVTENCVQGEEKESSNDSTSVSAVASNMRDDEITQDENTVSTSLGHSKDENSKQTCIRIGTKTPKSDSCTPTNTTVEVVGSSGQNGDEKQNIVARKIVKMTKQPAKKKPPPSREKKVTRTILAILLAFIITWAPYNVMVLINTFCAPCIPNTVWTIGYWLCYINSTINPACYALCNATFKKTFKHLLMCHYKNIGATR

[3] = target: T3, Muscarinic acetylcholine receptor M4 (Rattus norvegicus) (UniProt P08485); assay: Antagonist activity at rat M4 receptor by calcium mobilization assay relative to acetylcholine; assay type: functional
T3 sequence (whole entry): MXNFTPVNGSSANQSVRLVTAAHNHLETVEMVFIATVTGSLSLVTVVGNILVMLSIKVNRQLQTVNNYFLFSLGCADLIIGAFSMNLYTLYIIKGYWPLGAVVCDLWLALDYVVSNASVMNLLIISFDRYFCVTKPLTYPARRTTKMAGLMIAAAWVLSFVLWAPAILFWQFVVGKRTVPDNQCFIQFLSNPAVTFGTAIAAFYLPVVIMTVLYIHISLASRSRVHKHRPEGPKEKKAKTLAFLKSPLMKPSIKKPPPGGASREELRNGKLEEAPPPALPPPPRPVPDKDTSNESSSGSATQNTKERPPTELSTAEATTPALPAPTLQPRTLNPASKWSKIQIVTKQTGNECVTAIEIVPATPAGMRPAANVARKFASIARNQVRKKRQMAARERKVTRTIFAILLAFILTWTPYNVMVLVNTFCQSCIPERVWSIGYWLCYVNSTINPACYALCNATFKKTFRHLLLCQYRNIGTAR

[4] = target: T4, Muscarinic acetylcholine receptor M4 (Homo sapiens) (UniProt P08173); assay: Antagonist activity at recombinant human M4 receptor expressed in CHO cells co-expressing Gqi5 by calcium mobilization assay relative to acetylcholine; assay type: functional, cell-based
T4 sequence (whole entry): T1 sequence (P08173 whole entry)

[5] = target: T5, Muscarinic acetylcholine receptor M4 (Rattus norvegicus, UniProt P08485); assay: Antagonist activity at rat M4 receptor by calcium mobilization assay; assay type: functional
T5 sequence (P08485 whole entry): T3 sequence (whole entry)

[6] = Ratio of unbound brain to plasma concentration in rat; assay type: ADME
[7] = target: T6, Muscarinic acetylcholine receptor M3 (Homo sapiens, UniProt P20309); assay: Antagonist activity at recombinant human M3 receptor expressed in CHO cells co-expressing Gqi5 by calcium mobilization assay; assay type: functional, cell-based
Target sequence in this assay (P20309 whole entry): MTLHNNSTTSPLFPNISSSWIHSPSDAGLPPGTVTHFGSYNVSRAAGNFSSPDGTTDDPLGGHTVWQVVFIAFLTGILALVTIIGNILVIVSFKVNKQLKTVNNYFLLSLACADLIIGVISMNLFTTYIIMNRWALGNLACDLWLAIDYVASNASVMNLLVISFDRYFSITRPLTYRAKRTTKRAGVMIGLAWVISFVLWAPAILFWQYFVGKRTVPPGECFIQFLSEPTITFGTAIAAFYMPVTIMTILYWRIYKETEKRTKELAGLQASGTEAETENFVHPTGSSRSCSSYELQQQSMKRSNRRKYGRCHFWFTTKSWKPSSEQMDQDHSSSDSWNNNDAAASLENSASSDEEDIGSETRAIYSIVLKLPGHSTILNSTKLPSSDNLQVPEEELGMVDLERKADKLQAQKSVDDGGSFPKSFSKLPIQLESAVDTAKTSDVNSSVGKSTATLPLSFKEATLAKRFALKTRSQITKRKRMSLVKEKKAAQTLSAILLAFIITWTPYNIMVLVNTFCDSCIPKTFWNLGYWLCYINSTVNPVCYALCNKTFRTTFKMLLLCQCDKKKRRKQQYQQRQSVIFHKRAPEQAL

[8] = target: T7, Muscarinic acetylcholine receptor M5 (Homo sapiens, UniProt P08912); assay: Antagonist activity at recombinant human M5 receptor expressed in CHO cells co-expressing Gqi5 by calcium mobilization assay; assay type: functional, cell-based
T7 sequence (P08912 whole entry): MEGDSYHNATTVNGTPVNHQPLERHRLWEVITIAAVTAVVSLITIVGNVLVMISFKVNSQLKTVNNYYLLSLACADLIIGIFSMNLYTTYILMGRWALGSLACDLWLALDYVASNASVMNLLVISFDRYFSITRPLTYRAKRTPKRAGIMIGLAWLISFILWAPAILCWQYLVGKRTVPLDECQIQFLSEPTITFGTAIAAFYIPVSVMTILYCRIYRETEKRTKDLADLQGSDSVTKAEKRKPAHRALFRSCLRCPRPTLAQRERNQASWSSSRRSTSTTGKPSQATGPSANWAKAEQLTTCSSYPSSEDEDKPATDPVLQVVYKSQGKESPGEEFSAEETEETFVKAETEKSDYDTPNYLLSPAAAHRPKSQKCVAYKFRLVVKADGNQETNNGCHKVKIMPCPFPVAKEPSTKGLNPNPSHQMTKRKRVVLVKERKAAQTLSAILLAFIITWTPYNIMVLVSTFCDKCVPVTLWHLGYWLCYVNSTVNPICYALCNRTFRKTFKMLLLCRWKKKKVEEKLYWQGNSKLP

Plasma [9] = assay: Unbound plasma concentration in rat; assay type: ADME, cell-free
Plasma [10] = assay: Unbound plasma concentration in human; assay type: ADME, cell-free
[11] = target: T8, Muscarinic acetylcholine receptor M1 (Homo sapiens, UniProt P11229); assay: Antagonist activity at recombinant human M1 receptor expressed in CHO cells co-expressing Gqi5 by calcium mobilization assay; assay type: functional, cell-based
T8 sequence (P11229 whole entry): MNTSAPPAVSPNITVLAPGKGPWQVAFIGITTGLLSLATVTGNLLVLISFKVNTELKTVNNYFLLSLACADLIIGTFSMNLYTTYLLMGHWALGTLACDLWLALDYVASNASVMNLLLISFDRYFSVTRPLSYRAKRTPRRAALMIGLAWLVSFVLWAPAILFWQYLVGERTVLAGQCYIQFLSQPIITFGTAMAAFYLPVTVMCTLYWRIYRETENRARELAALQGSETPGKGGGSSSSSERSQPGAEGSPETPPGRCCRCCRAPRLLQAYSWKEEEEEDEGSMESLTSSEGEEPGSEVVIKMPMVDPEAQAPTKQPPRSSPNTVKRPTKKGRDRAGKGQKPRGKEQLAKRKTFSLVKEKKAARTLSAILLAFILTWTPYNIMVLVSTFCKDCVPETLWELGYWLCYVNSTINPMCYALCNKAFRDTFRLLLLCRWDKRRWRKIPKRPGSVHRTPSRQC

[12] = Brain to plasma partition coefficient, Kp of the compound in rat; assay type: ADME
Brain = assay: Unbound brain concentration in rat; assay type: ADME, tissue-based; conditions: in vivo
[13] = target: T1, Muscarinic acetylcholine receptor M4; assay: Displacement of [3H]-NMS from recombinant human M4 receptor expressed in CHO cell membranes
[14] = target: T6, Muscarinic acetylcholine receptor M3; assay: Antagonist activity at recombinant human M3 receptor expressed in CHO cells co-expressing Gqi5 by calcium mobilization assay relative to acetylcholine; assay type: functional, cell-based
Target sequence in this assay (P20309 whole entry, looked up): as the sequence (P20309 whole entry) above

[15] = target: T9, Muscarinic acetylcholine receptor M2 (Homo sapiens) (UniProt P08172); assay: Antagonist activity at recombinant human M2 receptor expressed in CHO cells co-expressing Gqi5 by calcium mobilization assay relative to acetylcholine; assay type: functional, cell-based
T9 sequence (whole entry): T2 sequence (P08172 whole entry)

[16] = target: T10, Muscarinic acetylcholine receptor M1 (Homo sapiens) (UniProt P11229); assay: Antagonist activity at recombinant human M1 receptor expressed in CHO cells co-expressing Gqi5 by calcium mobilization assay relative to acetylcholine; assay type: functional, cell-based
T10 sequence (whole entry): T8 sequence (P11229 whole entry)

[17] = target: T11, Muscarinic acetylcholine receptor M5 (Homo sapiens) (UniProt P08912); assay: Antagonist activity at recombinant human M5 receptor expressed in CHO cells co-expressing Gqi5 by calcium mobilization assay relative to acetylcholine; assay type: functional, cell-based
T11 sequence (whole entry): T7 sequence (P08912 whole entry)

[18] = Clearance in rat at 0.2 mg/kg administered as iv cassette dose; conditions: in vivo
[19] = Elimination half life in rat at 0.2 mg/kg administered as iv cassette dose; conditions: in vivo, read-out: beta t1/2 (converted)
[20] = Volume of distribution at steady state in rat at 0.2 mg/kg administered as iv cassette dose; conditions: in vivo, read-out: Vdss

| IC50 ([1]; read-out: IC50) [nM] | IC50 ([1]; read-out: pIC50 (converted)) [nM] | IC50 [2] [nM] | Emin [4] [%] | IC50 [7] [nM] | IC50 [8] [nM] | IC50 [11] [nM] | Emin [14] [%] | Emin [15] [%] | Emin [16] [%] | Emin [17] [%] | SMILES | further results |
| --- | --- | --- | --- | --- | --- | --- | --- | --- | --- | --- | --- | --- |
| 380 | 347 | < 1500 | 5.3 | < 1500 | < 1500 | < 1500 |  |  |  |  | CCc1ccc(Oc2cc(N3CCC(C(=O)N4CCc5ccccc5C4)CC3)ncn2)cc1 | Emin [3]: 13.1%; IC50 ([5]; read-out: IC50): 590 nM; IC50 ([5]; read-out: pIC50 (converted)): 562 nM; K(p,uu,brain) [6]: 0.36; Fu (Plasma [9]): 0.004; Fu (Plasma [10]): 0.001; Kp [12]: 1.45; Fu (Brain): 0.001 |
| 100 |  | 330 | 3 | 380 | 510 | 250 | < 6 | < 6 | < 6 | < 6 | O=C(C1CCN(c2cc(Oc3ccc(F)cc3F)ncn2)CC1)N1CCc2ccccc2C1 | Ki [13]: 10.3 nM |
| 140 | 132 | 352 | 3 | 365 | 695 | 313 | < 6 | < 6 | < 6 | < 6 | O=C(C1CCN(c2cc(Oc3ccc(Cl)cc3)ncn2)CC1)N1CCc2ccccc2C1 |  |
| 340 | 324 | 520 | 18.4 | 660 | 1130 | 540 | 2.3 | 8.7 | 18.2 | 42.6 | O=C(C1CCN(c2cc(Oc3ccc(F)cc3F)ncn2)CC1)N1Cc2ccccc2C1 | clearance [18]: 5.37 mL/min/kg; half-life [19]: 3.7 h; Emin [3]: 42.7%; Vd [20]: 1.35 L/kg; IC50 ([5]; read-out: IC50): 560 nM; IC50 ([5]; read-out: pIC50 (converted)): 479 nM; K(p,uu,brain) [6]: 0.87; Kp [12]: 0.67 |
| 270 |  |  | 3 |  |  |  |  |  |  |  | O=C(C1CCN(c2cc(Oc3ccc(Cl)cc3Cl)ncn2)CC1)N1CCc2ccccc2C1 |  |
|  |  |  | 7 |  |  |  |  |  |  |  | O=C(C1CCN(c2cc(Oc3c(F)cccc3F)ncn2)CC1)N1CCc2ccccc2C1 |  |
| > 10000 |  |  |  |  |  |  |  |  |  |  | CN(Cc1ccccc1)C(=O)C1CCN(c2cc(Oc3ccc(F)cc3F)ncn2)CC1 |  |
| 1040 |  |  | 6 |  |  |  |  |  |  |  | O=C(C1CCN(c2cc(Oc3ccc(F)cc3F)ncn2)CC1)N1CCCc2ccccc2C1 |  |
| 150 |  |  | 3.1 |  |  |  |  |  |  |  | O=C(C1CCN(c2cc(Oc3ccc(Cl)cc3F)ncn2)CC1)N1CCc2ccccc2C1 |  |
| 310 |  |  | 3.2 |  |  |  |  |  |  |  | O=C(C1CCN(c2cc(Oc3cccc(F)c3)ncn2)CC1)N1CCc2ccccc2C1 |  |
| > 10000 |  |  |  |  |  |  |  |  |  |  | O=C(C1CCN(c2cc(Oc3ccc(F)cc3F)ncn2)CC1)N1CCc2cc(C(F)(F)F)ccc2C1 |  |
| 130 | 123 | 384 | 3.2 | 404 | 732 | 322 | < 6 | < 6 | < 6 | < 6 | O=C(C1CCN(c2cc(Oc3ccccc3F)ncn2)CC1)N1CCc2ccccc2C1 | Kp uu ([6]; brain/plasma, read-out: K(p,uu,brain)): 0.75; Kp ([12]; brain/plasma, read-out: Kp): 0.68 |
